How the values were obtained:
[1] = human, in vivo
[2] = human
[3] = human; remark: listed apart in the source
[4] = 4 °C

## O=C(NNC(=O)C1C2C=CC(C3CC23)C1C(=O)O)c1ccc(C(F)(F)F)cc1 (stereo not shown) [NIOCH-14]
[1]
  half-life compared with ST-246: longer
  maximum concentration in plasma compared with ST-246: lower
[1]; po
  dose of ST-246 equivalent to 600 mg of NIOCH-14 according to the area under the curve: ~250 mg
[1]; po, 600 mg
  AUCo-inf: 8864 ± 4117
  Cl/F: 80 ± 37 L/h

## O=C(NN1C(=O)[C@@H]2[C@@H]3C=C[C@@H]([C@H]4C[C@@H]34)[C@@H]2C1=O)c1ccc(C(F)(F)F)cc1 [ST-246, tecovirimat]
[1]; po
  maximal ST-246 concentration in real-world plasma samples: ≤ 1000 ng/mL
[2]
  time of stability at −20 °C: ≥ 90 days
  time without degradation at −20 °C: at least 3 months
[3]
  % of nominal concentrations after three consecutive freeze-thaw cycles: 96–115%
[4]
  time of stability in autosampler: 48 h

From PMC9182130 (Molecules, 2022)
